Measurements from ChEMBL document CHEMBL3639003, “Heteroaryloxycarbocyclyl compounds as PDE10 inhibitors” (2015).

Target: cAMP and cAMP-inhibited cGMP 3',5'-cyclic phosphodiesterase 10A (Homo sapiens, UniProt Q9Y233)
Experiment: IMAP TR-FRET Assay: Enzyme Activity. An IMAP TR-FRET assay was used to analyze the enzyme activity (Molecular Devices Corp., Sunnyvale Calif.). 5 uL, of serial diluted PDE10A (BPS Bioscience, San Diego, Calif.) or tissue homogenate was incubated with equal volumes of diluted fluorescein labeled cAMP or cGMP for 60 min in 384-well polystyrene assay plates (Corning, Corning, N.Y.) at room temperature. After incubation, the reaction was stopped by adding 60 uL, of diluted binding reagents and was incubated for 3 hours to overnight at room temperature. The plates were read on an Envision (Perkin Elmer, Waltham, Mass.) for time resolved fluorescence resonance energy transfer. The data were analyzed with GraphPad Prism (La Jolla, Calif.).Enzyme Inhibition. To check the inhibition profile, 5 uL, of serial diluted compounds were incubated with 5 uL, of diluted PDE10 enzyme (BPS Bioscience, San Diego, Calif.) or tissue homogenate in a 384-well polystyrene assay plate (Corning, Corning, N.Y.).

Chain of cAMP and cAMP-inhibited cGMP 3',5'-cyclic phosphodiesterase 10A (Q9Y233 whole entry): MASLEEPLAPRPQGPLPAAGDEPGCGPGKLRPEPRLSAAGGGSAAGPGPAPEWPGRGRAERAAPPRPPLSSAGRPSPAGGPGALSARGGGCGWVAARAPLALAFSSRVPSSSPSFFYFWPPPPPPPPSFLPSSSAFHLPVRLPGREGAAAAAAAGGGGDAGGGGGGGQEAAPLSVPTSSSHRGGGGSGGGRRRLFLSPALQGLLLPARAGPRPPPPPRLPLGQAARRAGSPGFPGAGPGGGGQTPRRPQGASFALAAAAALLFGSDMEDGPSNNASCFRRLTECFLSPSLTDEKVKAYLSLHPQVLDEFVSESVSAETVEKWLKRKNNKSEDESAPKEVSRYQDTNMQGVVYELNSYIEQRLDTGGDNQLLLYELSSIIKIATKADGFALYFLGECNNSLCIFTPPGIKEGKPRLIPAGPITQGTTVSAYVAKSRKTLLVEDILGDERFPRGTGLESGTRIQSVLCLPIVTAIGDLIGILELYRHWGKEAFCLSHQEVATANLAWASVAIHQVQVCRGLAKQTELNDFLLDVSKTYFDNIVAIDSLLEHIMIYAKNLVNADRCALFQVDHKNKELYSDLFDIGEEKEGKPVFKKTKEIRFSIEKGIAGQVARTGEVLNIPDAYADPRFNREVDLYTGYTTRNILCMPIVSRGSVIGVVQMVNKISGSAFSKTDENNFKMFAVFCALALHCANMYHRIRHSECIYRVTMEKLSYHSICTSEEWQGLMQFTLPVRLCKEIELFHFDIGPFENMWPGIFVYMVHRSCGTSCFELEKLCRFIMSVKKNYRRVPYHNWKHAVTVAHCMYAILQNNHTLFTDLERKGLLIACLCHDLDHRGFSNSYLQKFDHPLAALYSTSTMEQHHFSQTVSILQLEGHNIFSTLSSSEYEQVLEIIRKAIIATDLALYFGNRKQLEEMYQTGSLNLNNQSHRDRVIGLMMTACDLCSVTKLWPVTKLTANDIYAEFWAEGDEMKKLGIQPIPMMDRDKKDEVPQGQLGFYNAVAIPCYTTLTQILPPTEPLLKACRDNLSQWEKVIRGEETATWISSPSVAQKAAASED

SMILES	IC50 [nM]
Cc1cc(-c2cccnc2O[C@H]2CC[C@H](Nc3nc4ccccc4s3)CC2)ccn1	19.6
Cc1ccnc(N[C@H]2CC[C@H](Oc3ncccc3C3CCOCC3)CC2)c1	150
Cc1cccnc1N[C@H]1CC[C@H](Oc2ncccc2C2CCOCC2)CC1	46
Cc1cccc(N[C@H]2CC[C@H](Oc3ncccc3C3CCOCC3)CC2)n1	1750
c1cnc(O[C@H]2CC[C@H](Nc3ccc4ccccc4n3)CC2)c(C2CCOCC2)c1	91
c1cnc(O[C@H]2CC[C@H](Nc3nc4ccccc4o3)CC2)c(C2CCOCC2)c1	12
c1cnc(O[C@H]2CC[C@H](Nc3nc4ccccc4s3)CC2)c(C2CCOCC2)c1	32.5
Cc1ccc(N[C@H]2C[C@H](Oc3ncccc3C3CCOCC3)C2)nc1	17.6
CC(=O)N1CCC(c2nccnc2O[C@H]2C[C@@H](Nc3nc4ccccc4s3)C2)CC1	2.77
CC(=O)N1CCC(c2nccnc2O[C@H]2C[C@H](Nc3ccc4ccccc4n3)C2)CC1	15.8
O=C(c1ccccn1)C1CC(Oc2ncccc2C2CCOCC2)C1 (centres undefined)	250
CC(=O)N1CCC(c2nccnc2O[C@H]2C[C@@H](Nc3ccc(C)cn3)C2)CC1	66.1
CC(=O)N1CCC(c2nccnc2O[C@H]2C[C@H](Nc3ccc(C)cn3)C2)CC1	84.6
Fc1cccc2sc(N[C@H]3C[C@@H](Oc4nccnc4C4CCOCC4)C3)nc12	13
Fc1ccc2sc(N[C@H]3C[C@@H](Oc4nccnc4C4CCOCC4)C3)nc2c1	18.3
Fc1ccc2nc(N[C@H]3C[C@@H](Oc4nccnc4C4CCOCC4)C3)sc2c1	15.1
Cc1cc(-c2nccnc2O[C@H]2C[C@@H](Nc3nc4ccccc4s3)C2)ccn1	20.5

SMILES	IC50 [nM]
Cc1ccc(-c2nccnc2O[C@H]2C[C@@H](Nc3nc4cc(F)ccc4s3)C2)cn1	19.7
COC(=O)N1CC(c2nccnc2O[C@H]2C[C@@H](Nc3nc4ccccc4s3)C2)C1	17.5
COCC(=O)N1CCC(c2nccnc2O[C@H]2C[C@@H](Nc3ccc4ccccc4n3)C2)CC1	5.06
c1ccc2sc(N[C@H]3C[C@@H](Oc4nccnc4N4CCOCC4)C3)nc2c1	22.4
N#CC1CCN(c2nccnc2O[C@H]2C[C@@H](Nc3nc4ccccc4s3)C2)C1 (some centres undefined)	1.07
CC1CCCN(c2nccnc2O[C@H]2C[C@@H](Nc3nc4ccccc4s3)C2)C1 (some centres undefined)	29.4
OCC1CCCN(c2nccnc2O[C@H]2C[C@@H](Nc3nc4ccccc4s3)C2)C1 (some centres undefined)	3.62
FC1(F)CCN(c2nccnc2O[C@H]2C[C@@H](Nc3nc4ccccc4s3)C2)C1	11.1
O=S1(=O)CCN(c2nccnc2O[C@H]2C[C@@H](Nc3nc4ccccc4s3)C2)CC1	18.5
O[C@@H]1CCN(c2nccnc2O[C@H]2C[C@@H](Nc3nc4ccccc4s3)C2)C1	14.2
O[C@H]1CCN(c2nccnc2O[C@H]2C[C@@H](Nc3nc4ccccc4s3)C2)C1	17.5
CN1CCN(c2nccnc2O[C@H]2C[C@@H](Nc3nc4ccccc4s3)C2)CC1	122
CN1CCN(c2nccnc2O[C@H]2C[C@@H](Nc3ncc4ccccc4n3)C2)CC1	316
OCC1CCN(c2nccnc2O[C@H]2C[C@@H](Nc3ncc4ccccc4n3)C2)CC1	10.9
CC(=O)N1CCN(c2nccnc2O[C@H]2C[C@@H](Nc3nc4ccccc4s3)C2)CC1	9.26
CC(=O)N1CCN(c2nccnc2O[C@H]2C[C@@H](Nc3ccc4ccccc4n3)C2)CC1	23.7
O=C(c1nc2ccccc2[nH]1)[C@H]1C[C@H](Oc2ncccc2C2CCOCC2)C1	7.15

Continued by falling IC50, values first:

IC50 [nM]	SMILES
8.35	N#Cc1ccc(-c2nccnc2O[C@H]2C[C@@H](Nc3ccc4ccccc4n3)C2)cn1
7.71	N#Cc1ccc(-c2nccnc2O[C@H]2C[C@@H](Nc3ncc4ccccc4n3)C2)cn1
7.66	Clc1ccc(-c2nccnc2O[C@H]2C[C@@H](Nc3nc4ccccc4s3)C2)cn1
7.5	c1ccc2nc(N[C@H]3C[C@@H](Oc4nccnc4C4CCOCC4)C3)ccc2c1
7.4	N#Cc1ccc(-c2nccnc2O[C@H]2C[C@@H](Nc3nc4ccccc4s3)C2)cn1
6.92	CC1CCN(c2nccnc2O[C@H]2C[C@@H](Nc3nc4ccccc4s3)C2)C1 (some centres undefined)
6.57	COCC(=O)N1CCC(c2nccnc2O[C@H]2C[C@@H](Nc3nc4ccccc4s3)C2)CC1
5.43	Fc1cnc(O[C@H]2C[C@@H](Nc3nc4c(F)cccc4s3)C2)c(C2CCOCC2)c1
4.24	COC(=O)N1CCC(c2nccnc2O[C@H]2C[C@@H](Nc3nc4ccccc4s3)C2)CC1
4.23	Cc1cnccc1-c1nccnc1O[C@H]1C[C@@H](Nc2nc3ccccc3s2)C1
4.11	COc1ncccc1-c1nccnc1O[C@H]1C[C@@H](Nc2nc3ccccc3s2)C1
3.8	NC(=O)c1ccc(-c2nccnc2O[C@H]2C[C@@H](Nc3ccc4ccccc4n3)C2)cn1
3.55	Clc1ccc(C2=CCOCC2)c(O[C@H]2C[C@@H](Nc3nc4ccccc4s3)C2)n1
3.49	Fc1cnc(O[C@H]2C[C@@H](Nc3nc4cc(F)ccc4s3)C2)c(C2CCOCC2)c1
3.25	Cc1ncc(-c2nccnc2O[C@H]2C[C@@H](Nc3nc4ccccc4s3)C2)cn1
3.19	c1cnc(O[C@H]2C[C@H](Nc3nc4ccccc4s3)C2)c(C2CCOCC2)c1
3.18	COC(=O)N1CCC(c2cccnc2O[C@H]2C[C@@H](Nc3nc4ccccc4s3)C2)CC1
3.16	OCC1CCN(c2nccnc2O[C@H]2C[C@@H](Nc3nc4ccccc4s3)C2)CC1
2.97	N#Cc1ccc(-c2cccnc2O[C@H]2C[C@H](Nc3nc4ccccc4s3)C2)cn1
2.96	NC(=O)c1ccc(-c2nccnc2O[C@H]2C[C@@H](Nc3nc4ccccc4s3)C2)cn1
2.63	c1cnc(O[C@H]2C[C@H](Nc3nc4ccccc4[nH]3)C2)c(C2CCOCC2)c1
2.31	N#CC1CCN(c2nccnc2O[C@H]2C[C@@H](Nc3nc4ccccc4s3)C2)CC1
2.26	N#CC1CCN(c2nccnc2O[C@H]2C[C@@H](Nc3ccc4ccccc4n3)C2)CC1
1.53	c1cnc(O[C@H]2C[C@@H](Nc3nc4ccccc4[nH]3)C2)c(C2CCOCC2)c1
1.5	c1cnc(O[C@H]2C[C@@H](Nc3ccc4ccccc4n3)C2)c(C2CCOCC2)c1
1.32	CC(=O)N1CCC(c2cccnc2O[C@H]2C[C@@H](Nc3ccc4ccccc4n3)C2)CC1
1.25	N#CC1CCN(c2cccnc2O[C@H]2C[C@@H](Nc3nc4ccccc4s3)C2)CC1
0.948	COCC(=O)N1CCC(c2cccnc2O[C@H]2C[C@@H](Nc3ccc4ccccc4n3)C2)CC1
0.751	c1cnc(O[C@H]2C[C@@H](Nc3nc4ccccc4s3)C2)c(C2CCOCC2)c1
0.129	NC(=O)c1ccc(-c2cccnc2O[C@H]2C[C@@H](Nc3nc4ccccc4s3)C2)cn1
